We go through eleven compounds from article PMC6332029, “Mimosine Dipeptide Enantiomsers: Improved Inhibitors against Melanogenesis and Cyclooxygenase” (Molecules, 2015).

Experiment [1] has as its system intracellular tyrosinase in B16F10 melanoma cells. The experiment can be described thus: Intracellular tyrosinase inhibition assay. In kind it is cell-based, Mouse. The note with it: L-DOPA substrate, mean ± SE, read-out: IC50 for Cellular Tyrosinase Inhibition. On the procedure:
(§1) Mouse B16F10 cell line was obtained from American Type Culture Collection (Manassas, VA, USA). Cells were cultured in Dulbecco’s modified minimum essential medium (D-MEM) medium containing 10% fetal bovine serum (FBS), 1% penicillin/streptomycin in a humidified atmosphere with 5% CO2 incubator at 37 °C.
Cells were seeded in a 96-well plate at a density 5 × 10^3 cells/well and the compounds (10–500 μM) were added after 24 h treatment. Cells were incubated for 48 h, washed two times with 50 mM of ice-cold phosphate buffer (pH 6.8), lysed with 90 μL of 50 mM phosphate buffer (pH 6.8) containing 1% Triton-X, and frozen at −80 °C for 30 min. After thawing and mixing, 20 μL of 0.5% L-DOPA was added to each well. The mixture was incubated for 2 h at 37 °C and absorbance was measured at 490 nm.

Experiment [2] addresses mushroom tyrosinase. In words: Mushroom tyrosinase inhibition microplate assay (L-tyrosine substrate). The settings on record: L-tyrosine as substrate; mean ± SE. In kind it is biochemical. On the procedure: (§2) A microplate assay was used to assess tyrosinase inhibition, as previously described. Samples (20 μL) with various concentrations were transferred into each well of 96-well plate, and 120 μL of 20 mM sodium phosphate buffer (pH 6.8), 20 μL of 500 U/mL mushroom tyrosinase enzyme dissolved in buffer were added. […] The absorbance was recorded at 470 nm using a microplate reader (Benchmark plus, Biorad, Herfordshire, UK). […] For the kinetic studies of selected inhibitors, we used a range of L-tyrosine concentrations for each inhibitor concentration. Preincubation and measurement times were the same as above. Lineweaver-Burk plots were used to determine the type of enzyme inhibition, and the inhibition constant Ki was determined by plotting Km/Vmax versus the inhibitor concentration. Percent inhibition was calculated using the following equation: Inhibition (%) = ([CE − Co] − [SE − So])/(CE − Co) × 100 (1) where CE is the absorbance of the control samples with enzyme, Co is the absorbance of the control samples without enzyme, SE is the absorbance of the tested sample with enzyme, and So is the absorbance of the tested sample without enzyme.

For experiment [3], the system named is B16F10 melanoma cells. In words: Determination of melanin content in B16F10 cells. The experiment is classed as cell-based, Mouse. The note with it: read-out: IC50 for Melanin Content Inhibition. On the procedure:
as §1
The assay was performed following previously described procedure. Cells (5 × 10^3 cells/well) were seeded in a 96-well plate and cultured for 24 h. Compounds (10–500 μM) were added and incubated at 37 °C for 48 h. The medium was replaced by a fresh medium containing the same concentration of compound and the cells were incubated for 48 h. The medium was removed and the cells were dissolved in 100 μL of 1 N NaOH. The reaction was heated at 90 °C for 1 h. Melanin content was estimated by the absorbance at 400 nm.

Experiment [4] deals with mushroom tyrosinase. In words: Kinetic analysis of tyrosinase inhibition (Lineweaver-Burk plots). The experiment is classed as biochemical. The settings on record: substrate L-tyrosine; for Inhibition Type: Lineweaver-Burk plots, inhibitor 0, 5, 15 μM; for Ki: plot of Km/Vmax versus inhibitor concentration, read-out: Inhibition Constant (Ki). Here is the method:
Tyrosinase activity was assayed as described in the text.
as §2

For experiment [5], the target named is T1, COX-1 (Ovis aries, UniProt P05979).
T1 construct: purchased Cayman Chemical, Ann Arbor, Michigan, USA
T1 sequence (P05979 25-600): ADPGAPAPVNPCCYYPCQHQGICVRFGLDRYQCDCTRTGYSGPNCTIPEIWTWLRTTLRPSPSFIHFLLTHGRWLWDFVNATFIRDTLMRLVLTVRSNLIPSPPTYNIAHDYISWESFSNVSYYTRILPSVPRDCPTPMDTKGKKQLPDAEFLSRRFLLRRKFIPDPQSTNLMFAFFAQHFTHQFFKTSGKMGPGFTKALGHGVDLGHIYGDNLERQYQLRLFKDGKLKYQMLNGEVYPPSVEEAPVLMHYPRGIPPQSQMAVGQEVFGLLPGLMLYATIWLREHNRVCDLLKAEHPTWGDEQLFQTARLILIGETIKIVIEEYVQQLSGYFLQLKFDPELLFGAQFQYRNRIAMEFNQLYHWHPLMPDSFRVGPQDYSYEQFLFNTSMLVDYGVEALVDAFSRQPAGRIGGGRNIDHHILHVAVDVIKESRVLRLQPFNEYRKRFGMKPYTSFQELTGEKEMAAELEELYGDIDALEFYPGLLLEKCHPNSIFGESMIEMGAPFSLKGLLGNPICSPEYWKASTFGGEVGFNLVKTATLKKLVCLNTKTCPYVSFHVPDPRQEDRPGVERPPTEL
In words: Colorimetric COX (ovine) inhibitor screening assay, COX-1. In kind it is biochemical. The settings on record: ovine COX-1, colorimetric kit; mean ± SE. Here is the method:
(§3) Inhibition of COX activity was measured using a colorimetric COX (ovine) inhibitor screening assay kit (Cayman Chemical, Ann Arbor, Michigan, USA). First, 150 μL of assay buffer (0.1 M Tris-HCl, pH 8.0), 10 μL of heme, and 10 μL of enzyme (COX-1 or COX-2) were added to an […] 96-well microtiter plate. Immediately, 10 μL of sample was added to inhibitor wells while 10 μL of solvent or buffer was added to control and background wells, respectively. […] The mixture was shaken for a few seconds and incubated for an additional 5 min at 25 °C. The absorbance was determined at 590 nm using a microplate reader (Benchmark plus, Biorad, Herfordshire, UK). […] The corrected absorbance of all the samples and controls was calculated by subtracting the absorbance of the background wells. The percentage of inhibition was calculated as follows: Inhibition (%) = (Ao − As)/Ao × 100 (2) where Ao and As are the absorbance of the corrected control and sample, respectively.

Experiment [6] concerns COX-2. The experiment can be described thus: Colorimetric COX (ovine) inhibitor screening assay, COX-2. In kind it is biochemical. The settings on record: ratio of COX-1 IC50 to COX-2 IC50. On the procedure: as §3
Experiment [7] deals with T2, COX-2 (Ovis aries, UniProt P79208).
T2 sequence (P79208 17-603): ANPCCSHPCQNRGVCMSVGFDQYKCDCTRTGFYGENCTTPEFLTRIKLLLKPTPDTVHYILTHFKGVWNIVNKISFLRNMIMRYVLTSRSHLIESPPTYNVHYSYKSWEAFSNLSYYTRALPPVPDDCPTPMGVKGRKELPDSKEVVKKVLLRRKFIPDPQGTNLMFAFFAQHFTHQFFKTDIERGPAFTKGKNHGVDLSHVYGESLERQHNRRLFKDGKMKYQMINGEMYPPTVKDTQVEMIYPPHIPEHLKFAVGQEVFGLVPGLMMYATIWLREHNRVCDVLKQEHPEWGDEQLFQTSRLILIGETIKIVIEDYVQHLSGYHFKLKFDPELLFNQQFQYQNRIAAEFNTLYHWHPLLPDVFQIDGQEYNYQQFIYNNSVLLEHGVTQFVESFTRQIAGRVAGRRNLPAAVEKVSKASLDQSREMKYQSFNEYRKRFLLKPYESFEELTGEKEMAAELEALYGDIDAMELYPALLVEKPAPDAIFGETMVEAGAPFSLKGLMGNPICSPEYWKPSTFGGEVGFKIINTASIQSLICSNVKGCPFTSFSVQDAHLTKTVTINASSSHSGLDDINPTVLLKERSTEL
The description is as above. The note with it: ovine COX-2, colorimetric kit; mean ± SE. The experiment is classed as biochemical. On the procedure: as §3

Experiment [8] concerns mushroom tyrosinase. The arrangement: method as in doi:10.1016/S0031-9422(00)82317-1. The settings on record: cited from earlier work.
Setting [9] is: Mus musculus, B16-F10, mean ± SE.

“And” between values parts separate entries of the source, which are not always exact repeats. Equal values may be shown once. Read-outs that look alike come from different tables or passages of the source.

With `N[C@@H](Cn1ccc(=O)c(O)c1)C(=O)N[C@H](Cc1ccccc1)C(=O)O` [Mi-D-Phe], the IC50 (commonly the point on the concentration scale where inhibition reaches its midpoint) in experiment [1] (Mus musculus, B16-F10, 48 h) was 194 ± 6.2 µM; in experiment [2], 19.7 ± 0.8 µM; in experiment [3] (setting [9]) it was 168.4 ± 1.4 µM.
As for `CC(C)[C@H](NC(=O)[C@@H](N)Cn1ccc(=O)c(O)c1)C(=O)O` [Mi-L-Val], the IC50 is 172 ± 6.5 µM in experiment [1] (Mus musculus, B16-F10, 48 h); 12 µM and 11.5 µM in experiment [2]; 170 ± 7.5 µM in experiment [3] (setting [9]); 24.4 ± 1.4 µM in experiment [5]; 22 µM and 21.7 µM in experiment [7]. The “Inhibition Type” value in experiment [4] is on record as “competitive”. In addition, the Ki (as a rule, a dissociation constant, usually derived from enzyme kinetics or from competition with a known ligand) in experiment [4] was determined as 30 µM. Moreover, in experiment [6], the “SI COX-1/COX-2 (selectivity index, COX-1 IC50/COX-2 IC50)” value was 1.12.
Turning to `N[C@@H](Cn1ccc(=O)c(O)c1)C(=O)N[C@@H](Cc1ccccc1)C(=O)O` [Mi-L-Phe], the IC50 in experiment [1] (Mus musculus, B16-F10, 48 h) was 179.2 ± 1.3 µM; in experiment [2] it was 24.1 ± 3.8 µM; in experiment [3] (setting [9]), 121 ± 8.6 µM.
`N[C@@H](Cn1ccc(=O)c(O)c1)C(=O)N[C@H](Cc1c[nH]c2ccccc12)C(=O)O` [Mi-D-Trp]: the IC50 in experiment [1] (Mus musculus, B16-F10, 48 h) is 150 ± 2.3 µM; in experiment [2], 17 µM and 16.9 µM; in experiment [3] (setting [9]) it was 116 ± 4.9 µM; in experiment [5], 26.1 ± 1.3 µM; in experiment [7], 27.5 ± 2.2 µM. The “Inhibition Type” value in experiment [4] is “competitive”. Also, the Ki in experiment [4] turned out to be 80 µM. Also, in experiment [6], the “SI COX-1/COX-2 (selectivity index, COX-1 IC50/COX-2 IC50)” value is recorded as 0.95.
As for `N[C@@H](Cn1ccc(=O)c(O)c1)C(=O)N1CCC[C@H]1C(=O)O` [Mi-L-Pro], the IC50 is 167 ± 7.3 µM in experiment [1] (Mus musculus, B16-F10, 48 h); 13 µM and 13.1 µM in experiment [2]; 110 ± 5.3 µM in experiment [3] (setting [9]); 17.9 ± 2.1 µM in experiment [5]; 29.3 ± 3 µM in experiment [7]. In experiment [4], the “Inhibition Type” value is listed as “competitive”. For the same compound, the Ki in experiment [4] was determined as 50 µM.
With `C[C@@H](NC(=O)[C@@H](N)Cn1ccc(=O)c(O)c1)C(=O)O` [Mi-D-Ala], the IC50 in experiment [1] (Mus musculus, B16-F10, 48 h) amounted to 181 ± 6.8 µM; in experiment [2], 17.7 ± 3.1 µM; in experiment [3] (setting [9]) it was 199 ± 5.2 µM; in experiment [5], 19.1 ± 1 µM; in experiment [7], 198 ± 3.7 µM. The “SI COX-1/COX-2 (selectivity index, COX-1 IC50/COX-2 IC50)” value in experiment [6] turned out to be 0.10.
`C[C@H](NC(=O)[C@@H](N)Cn1ccc(=O)c(O)c1)C(=O)O` [Mi-L-Ala]: the IC50 in experiment [1] (Mus musculus, B16-F10, 48 h) is 172 ± 4.6 µM; in experiment [2] it was 23.1 ± 2.2 µM; in experiment [3] (setting [9]), 128 ± 7.4 µM.
For `N[C@@H](Cn1ccc(=O)c(O)c1)C(=O)N1CCC[C@@H]1C(=O)O` [Mi-D-Pro], the IC50 in experiment [1] (Mus musculus, B16-F10, 48 h) amounted to 146 ± 5.2 µM; in experiment [2], 17.2 ± 2.1 µM; in experiment [3] (setting [9]) it was 123 ± 3 µM; in experiment [5], 21 ± 2 µM; in experiment [7], 128 ± 7.7 µM. In experiment [6], the “SI COX-1/COX-2 (selectivity index, COX-1 IC50/COX-2 IC50)” value stood at 0.15.
`CC(C)[C@@H](NC(=O)[C@@H](N)Cn1ccc(=O)c(O)c1)C(=O)O` [Mi-D-Val]: the IC50 in experiment [1] (Mus musculus, B16-F10, 48 h) is 162 ± 4.1 µM; in experiment [2], 10 µM and 10.3 µM; in experiment [3] (setting [9]), 112 ± 8.1 µM. In addition, in experiment [4], the “Inhibition Type” value is “competitive”. For the same compound, the Ki in experiment [4] stood at 20 µM.
For `N[C@@H](Cn1ccc(=O)c(O)c1)C(=O)O` [Mimosine, β-[N-(3-hydroxy-4-oxypyridyl)]-α-aminopropionic acid], the “Inhibition type of tyrosinase” value in experiment [8] is “competitive”. Also, the IC50 in experiment [1] (48 h) was 388 ± 7.2 µM; in experiment [1] (Mus musculus, B16-F10, 48 h), around 388 µM; in experiment [2] it was 32.4 ± 1.1 µM; in experiment [3] (setting [9]) it was around 226 µM; in experiment [3] (mean ± SE) it was 226 ± 4 µM; in experiment [5] it was 29 µM and 28.8 µM. In addition, the IC50 in experiment [7] was 21 µM and 20.9 µM. The “SI COX-1/COX-2 (selectivity index, COX-1 IC50/COX-2 IC50)” value in experiment [6] turned out to be 1.38.
With `N[C@@H](Cn1ccc(=O)c(O)c1)C(=O)N[C@@H](Cc1c[nH]c2ccccc12)C(=O)O` [Mi-L-Trp], the IC50 was 156 ± 8.3 µM in experiment [1] (Mus musculus, B16-F10, 48 h); 19.2 ± 1.5 µM in experiment [2]; 109 ± 2.7 µM in experiment [3] (setting [9]); 20.4 ± 1.6 µM in experiment [5]; 19 µM and 19.3 µM in experiment [7].
